The target in this series is ATP-dependent translocase ABCB1 (Homo sapiens, UniProt P08183). The series can be described thus: TP_TRANSPORTER: ATPase assay in reconstituted P-gp. It is filed as functional.
Chain of ATP-dependent translocase ABCB1 (P08183 whole entry): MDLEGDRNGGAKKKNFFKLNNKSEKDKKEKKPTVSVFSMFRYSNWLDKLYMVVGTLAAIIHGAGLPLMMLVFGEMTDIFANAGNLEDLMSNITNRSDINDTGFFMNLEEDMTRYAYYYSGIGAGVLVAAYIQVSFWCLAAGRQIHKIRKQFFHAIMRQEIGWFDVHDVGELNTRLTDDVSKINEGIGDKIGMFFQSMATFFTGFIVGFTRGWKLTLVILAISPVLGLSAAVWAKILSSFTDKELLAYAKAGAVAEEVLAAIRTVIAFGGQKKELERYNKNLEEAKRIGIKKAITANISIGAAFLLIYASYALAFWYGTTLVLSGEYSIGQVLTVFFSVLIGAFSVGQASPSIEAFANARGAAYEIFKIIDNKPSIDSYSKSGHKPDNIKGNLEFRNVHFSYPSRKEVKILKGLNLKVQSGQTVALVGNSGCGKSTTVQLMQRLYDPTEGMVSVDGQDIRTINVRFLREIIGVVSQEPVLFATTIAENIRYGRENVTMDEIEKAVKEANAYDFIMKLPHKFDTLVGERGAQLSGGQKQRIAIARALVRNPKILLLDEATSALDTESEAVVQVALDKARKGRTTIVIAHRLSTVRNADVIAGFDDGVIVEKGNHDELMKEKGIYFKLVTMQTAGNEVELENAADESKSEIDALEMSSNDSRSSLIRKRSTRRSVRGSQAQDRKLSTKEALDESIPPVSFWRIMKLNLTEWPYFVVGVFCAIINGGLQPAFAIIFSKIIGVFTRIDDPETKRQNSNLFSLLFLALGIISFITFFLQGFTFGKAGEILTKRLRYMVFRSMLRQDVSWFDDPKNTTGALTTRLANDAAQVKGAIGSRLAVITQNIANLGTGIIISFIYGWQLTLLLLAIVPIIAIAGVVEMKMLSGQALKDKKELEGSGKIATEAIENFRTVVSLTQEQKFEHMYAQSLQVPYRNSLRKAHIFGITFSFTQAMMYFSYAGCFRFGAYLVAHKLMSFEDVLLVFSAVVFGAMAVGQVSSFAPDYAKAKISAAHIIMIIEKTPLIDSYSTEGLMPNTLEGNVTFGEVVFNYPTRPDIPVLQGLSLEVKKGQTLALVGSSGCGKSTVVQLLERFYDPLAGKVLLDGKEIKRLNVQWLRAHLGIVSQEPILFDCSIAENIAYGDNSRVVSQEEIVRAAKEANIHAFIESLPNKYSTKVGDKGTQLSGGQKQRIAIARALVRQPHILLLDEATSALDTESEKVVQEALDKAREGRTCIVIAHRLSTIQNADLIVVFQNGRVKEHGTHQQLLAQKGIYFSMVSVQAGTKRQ

As for `CC(=O)O[C@H]1C(=O)[C@@]2(C)C([C@H](OC(=O)c3ccccc3)[C@]3(O)C[C@H](OC(=O)[C@H](O)[C@@H](NC(=O)CCC4=[N+]5C(=Cc6c(C)cc(C)n6[B-]5(F)F)C=C4)c4ccccc4)C(C)=C1C3(C)C)[C@]1(OC(C)=O)CO[C@@H]1C[C@@H]2O` (stereo partly specified), the Activity result is “substrate [+]”.

Source of the values: ChEMBL document CHEMBL2073903, “The expression of P-glycoprotein does influence the distribution of novel fluorescent compounds in solid tumour models” (Br J Cancer, 2003).
